{"source": "patent US7824850B2", "about": "“Methods of protein destabilization and uses thereof” (Aurora Biosciences Corporation, priority 2000, dated 2010)", "key": {"proteasome [1]": {"test_system": "proteasome", "assay": "TNT in vitro synthesis of multiUb-Bla fusions with or without proteasome inhibitor", "conditions": "50 μM; β-lactamase fusions containing 2, 3 or 4 copies of ubiquitinG76V", "excerpt": "S-Labeled multimerized destabilization domain-β-lactamase fusion protein molecules were produced using a coupled in vitro transcription/translation system based on a rabbit reticulocyte lysate (TNT T7 Quick; Promega)."}, "β-lactamase": {"target": "T1, β-lactamase (Escherichia coli, UniProt P62593)", "T1 construct": "wild-type (cleavable) ubiquitin (N, cleaved yes); expressed in transfected cells; host or cells: Jurkat", "T1 sequence (P62593 24-286 limits assumed)": "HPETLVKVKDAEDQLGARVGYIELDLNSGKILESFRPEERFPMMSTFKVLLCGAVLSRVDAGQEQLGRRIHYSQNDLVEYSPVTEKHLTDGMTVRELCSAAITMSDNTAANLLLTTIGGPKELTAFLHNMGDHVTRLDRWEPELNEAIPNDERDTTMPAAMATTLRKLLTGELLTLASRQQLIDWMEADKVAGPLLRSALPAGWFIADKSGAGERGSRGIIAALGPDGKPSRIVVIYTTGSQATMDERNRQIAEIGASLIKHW", "assay": "Control: β-lactamase activity in Jurkat cells expressing wild-type β-lactamase", "format": "cell-based", "conditions": "data not shown"}, "HRV14 2A protease": {"test_system": "HRV14 2A protease", "assay": "HRV 2A protease cell-based assay, Jurkat clone expressing 3XUb-HRV14-Bla", "design": "species or system human rhinovirus 14", "conditions": "compound 1 μM, 4 hours, cycloheximide 30 minutes", "description": "(§1) To assay HRV 2A protease activity, the selected Jurkat stable cell clones were treated for 16 hours with […] clavulanate to inactivate pre-existing cleaved and uncleaved HRV 2A-Bla fusion protein. Cells were then washed twice with PBS, resuspended at 100,000 cells/well in 100 μl RPMI+10% FBS in 96-well plates. The cells were incubated at 37° C. for 4 hours in the presence or absence of an inhibitor of the 2A protease. Cells were treated with 100 μg/ml cycloheximide for 30 minutes at 37° C., loaded with CCF2-AM for 2 hours at room temperature and read on the CytoFluor plate reader as described in Example 8. Inhibitor compounds, radicicol and geldanamycin, were used for the validation of the HRV protease cell-based assay. […] Compounds were tested at 1 μM for their ability to inhibit the HRV 2A protease cell-based assay using clones expressing HRV16 and HRV14 2A protease reporters."}, "HRV16 2A protease": {"test_system": "HRV16 2A protease", "assay": "HRV 2A protease cell-based assay, Jurkat clone expressing 3XUb-HRV16-Bla", "design": "species or system human rhinovirus 16", "conditions": "compound 1 μM, 4 hours, cycloheximide 30 minutes", "description": "as §1"}, "proteasome [2]": {"test_system": "proteasome", "assay": "In vitro degradation of 2XUb-Bla in chase lysate with inhibitors", "conditions": "20 minutes at 37° C."}, "proteasome [3]": {"target": "T2, proteasome (Homo sapiens, UniProt P28074)", "T2 sequence (P28074 60-263)": "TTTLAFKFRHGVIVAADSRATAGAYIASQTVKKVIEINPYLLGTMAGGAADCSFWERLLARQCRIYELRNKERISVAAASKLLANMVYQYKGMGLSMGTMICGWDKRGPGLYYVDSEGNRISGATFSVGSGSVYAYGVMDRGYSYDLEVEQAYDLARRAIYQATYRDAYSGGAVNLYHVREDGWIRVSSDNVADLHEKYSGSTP", "T2 sequence (P28072 35-239 partner)": "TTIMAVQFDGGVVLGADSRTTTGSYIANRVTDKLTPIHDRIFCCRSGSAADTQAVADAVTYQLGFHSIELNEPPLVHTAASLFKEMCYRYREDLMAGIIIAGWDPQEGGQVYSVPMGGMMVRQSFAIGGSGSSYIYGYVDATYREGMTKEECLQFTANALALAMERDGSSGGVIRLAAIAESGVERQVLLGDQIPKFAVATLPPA", "T2 sequence (Q99436 44-277 partner)": "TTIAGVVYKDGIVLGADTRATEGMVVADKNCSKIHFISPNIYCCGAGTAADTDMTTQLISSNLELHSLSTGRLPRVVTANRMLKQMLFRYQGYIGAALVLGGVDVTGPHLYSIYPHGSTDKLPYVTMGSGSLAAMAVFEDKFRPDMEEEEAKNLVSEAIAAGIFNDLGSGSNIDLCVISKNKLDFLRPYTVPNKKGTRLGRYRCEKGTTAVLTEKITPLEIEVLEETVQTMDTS", "conditions": "read-out: IC50 inhibition of decay of β-lactamase activity; Jurkat cells expressing 2XUb-Bla, 30 minutes preincubation, cycloheximide 1 hour", "quoted_text": "The cells were loaded with CCF2-AM to measure β-lactamase activity as described above.\nAfter 1 hour at 37° C., the cells were cooled to room temperature and then loaded with 1 μM CCF2-AM and β-lactamase activity quantified using a CytoFluor plate reader. The background-subtracted emission values at 460 nm and 530 nm were expressed as a 460/530 ratio and dose-response curves were plotted."}, "group II caspases": {"test_system": "group II caspases", "assay": "Caspase activity assay in Jurkat clones expressing 2XUb-DEVD-Bla or 2XUb-DEVA-Bla (CCF2-AM, 460/530 ratio)", "format": "cell-based, human"}, "[4]": {"conditions": "overnight treatment of Jurkat cells; cited from earlier work"}}, "note": "Where a SMILES comes first, the peptide text is derived from it. [ ]: non-standard residue; d: D form. The star is where a group is joined. Nle = CCCC[C@H](N)C(=O)O; Cbz = O=C(OCc1ccccc1)*; CH2F = FC*"}
{"molecule": "CC(C)C[C@@H](C=O)NC(=O)[C@H](CC(C)C)NC(=O)[C@H](CC(C)C)NC(=O)OCc1ccccc1", "note": "[MG132] (Cbz-Leu-Leu-Leu-aldehyde)", "values": [{"measurement": "effect on amount of fusion protein synthesized", "setting": "proteasome [1]", "value": "dramatic increase in the amount of fusion protein synthesized"}]}
{"molecule": "C[C@@H]1C[C@H]2O[C@@H]2/C=C\\C=C\\C(=O)Cc2c(Cl)c(O)cc(O)c2C(=O)O1", "note": "[radicicol]", "values": [{"measurement": "inhibition of β-lactamase activity (control)", "setting": "β-lactamase", "value": "did not inhibit β-lactamase activity"}, {"measurement": "460/530 nm ratio", "setting": "HRV14 2A protease", "value": 0.152}, {"measurement": "460/530 nm ratio", "setting": "HRV16 2A protease", "value": 0.229}]}
{"molecule": "CCCC[C@@H](C=O)NC(=O)[C@H](CC(C)C)NC(=O)[C@H](CC(C)C)NC(C)=O", "note": "[Ac-LLN] (Ac-Leu-Leu-[Nle]-aldehyde)", "values": [{"measurement": "effect on degradation of 2XUb-Bla in vitro", "setting": "proteasome [2]; 50 μM", "value": "stabilized the 2XUb-Bla fusion protein"}, {"measurement": "IC50", "setting": "proteasome [3]", "value": 13, "unit": "µM"}]}
{"molecule": "COC(=O)C[C@H](NC(=O)[C@H](C)NC(=O)[C@@H](NC(=O)OCc1ccccc1)C(C)C)C(=O)CF", "note": "[Z-VAD-fmk] (Cbz-Val-Ala-Asp(OMe)-CH2F)", "values": [{"measurement": "effect on stabilization of DEVD-Bla reporters", "setting": "group II caspases; 10 μM coincident with anti-Fas addition", "value": "blocked the stabilization of DEVD-Bla reporters"}, {"measurement": "IC50", "setting": "group II caspases; Jurkat cells expressing 2XUb-DEVD-Bla, 50 ng/ml anti-Fas IgM, read-out: IC50 inhibition of anti-Fas induced caspase activity", "value": 5, "unit": "µM"}]}
{"molecule": "COC1=C2C[C@@H](C)C[C@H](OC)[C@H](O)[C@@H](C)/C=C(\\C)[C@H](OC(N)=O)[C@@H](OC)/C=C\\C=C(/C)C(=O)NC(=CC1=O)C2=O", "note": "[geldanamycin]", "values": [{"measurement": "460/530 nm ratio", "setting": "HRV14 2A protease", "value": 0.153}, {"measurement": "460/530 nm ratio", "setting": "HRV16 2A protease", "value": 0.239}]}
{"molecule": "CC(=O)N[C@@H](CSC(=O)[C@]1([C@@H](O)C(C)C)NC(=O)[C@H](C)[C@@H]1O)C(=O)O", "note": "[lactacystin]", "values": [{"measurement": "effect on degradation of 2XUb-Bla in vitro", "setting": "proteasome [2]; 10 μM", "value": "stabilized the 2XUb-Bla fusion protein"}]}
{"molecule": "O=C(O)[C@H]1/C(=C/CO)O[C@@H]2CC(=O)N21", "note": "[Clavulanate, clavulanate]", "values": [{"measurement": "effect on β-lactamase levels", "setting": "[4]", "value": "reduces β-lactamase levels to background"}]}
